Where “and” joins values, the source holds several entries; their conditions need not be identical. Equal values may be shown once. Calls of active or inactive are those of the source. The rule behind the calls is not given here.

The assay concerns the target Intestinal-type alkaline phosphatase (Homo sapiens) (UniProt P09923). The assay is described as follows: activation of human intestinal phosphatase enzyme – biochemical, human enzyme for mouse series, mouse IAP activator project, SAR follow-up (AID 493145). The following applies: purified human intestinal alkaline phosphatase, enzymatic activity.

Intestinal-type alkaline phosphatase (Homo sapiens), sequence (P09923 whole entry, looked up): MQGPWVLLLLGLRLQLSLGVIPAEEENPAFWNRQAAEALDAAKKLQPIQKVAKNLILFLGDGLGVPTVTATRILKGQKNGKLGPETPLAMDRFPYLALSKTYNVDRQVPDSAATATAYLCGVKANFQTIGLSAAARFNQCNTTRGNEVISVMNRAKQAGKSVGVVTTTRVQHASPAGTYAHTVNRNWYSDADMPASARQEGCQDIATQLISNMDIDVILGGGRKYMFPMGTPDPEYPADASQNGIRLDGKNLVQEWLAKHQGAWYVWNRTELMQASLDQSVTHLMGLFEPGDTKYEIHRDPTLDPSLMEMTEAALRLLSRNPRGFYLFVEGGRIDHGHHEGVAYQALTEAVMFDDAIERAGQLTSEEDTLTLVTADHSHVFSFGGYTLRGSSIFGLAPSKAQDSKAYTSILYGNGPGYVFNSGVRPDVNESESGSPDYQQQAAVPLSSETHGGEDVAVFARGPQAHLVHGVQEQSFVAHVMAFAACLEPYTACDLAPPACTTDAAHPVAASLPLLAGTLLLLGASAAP

In the case of `COc1cc([N+](=O)[O-])ccc1NC(=S)NCCC(c1ccccc1)c1ccccc1`, the EC50 – broadly, the midpoint of the concentration-response curve – is > 100 µM (inactive). `O=C1/C(=C/c2ccco2)SC(=S)N1C1CCS(=O)(=O)C1` (centres undefined): the concentration giving a half-maximal response (EC50) was 42.6 µM. On to `CCOc1ccc2nc(NC(=O)CN(C)S(=O)(=O)c3ccc4[nH]c(=O)oc4c3)sc2c1`, for which the EC50 was > 100 µM (inactive). As for `COc1ccc(NC(=O)CCNS(=O)(=O)c2ccc3[nH]c(=O)oc3c2)cc1Cl`, the EC50 is > 100 µM (inactive). Turning to `N#Cc1cccc(NC(=O)CSc2sc3c(O)cc(=O)[nH]c3c2C#N)c1`, the EC50 is > 100 µM (inactive). With `COc1ccc(OC)c(NC(=O)CCNS(=O)(=O)c2ccc3[nH]c(=O)oc3c2)c1`, the EC50 is > 100 µM (inactive).

Take `Cc1ccc(NC(=O)CCNS(=O)(=O)c2ccc3[nH]c(=O)oc3c2)cc1N(C)C`: the EC50 is > 100 µM (inactive). For the compound `FC(F)(F)c1cccc(NC(=S)NCCC(c2ccccc2)c2ccccc2)c1`, the EC50 is 66.4 µM.

Turning to `CC(C)c1ccc(NC(=O)CCNS(=O)(=O)c2ccc3[nH]c(=O)oc3c2)cc1`, the EC50 was > 100 µM (inactive). The value for `COc1ccc(Cl)cc1NC(=O)CSc1sc2c(O)cc(=O)[nH]c2c1C#N` was > 100 µM (inactive). On to `Cc1ccc(NC(=O)CCNS(=O)(=O)c2ccc3[nH]c(=O)oc3c2)cc1`, for which the EC50 was > 100 µM (inactive). For `CCOc1cccc(NC(=O)CSc2sc3c(O)cc(=O)[nH]c3c2C#N)c1`, the EC50 was > 100 µM (inactive).

For the compound `N#Cc1c(SCC(=O)NCc2ccc3c(c2)OCO3)sc2c(O)cc(=O)[nH]c12`, the EC50 is > 100 µM (inactive). Take `O=C(CN1C(=O)/C(=C/c2ccco2)SC1=S)NC1C=CS(=O)(=O)C1` (centres undefined): the EC50 is 52.6 µM. For the compound `O=C(CN1C(=O)/C(=C/c2ccco2)SC1=S)NC1CCS(=O)(=O)C1` (centres undefined), the EC50 is 30.6 µM. `O=C(CN1C(=O)/C(=C/c2ccco2)SC1=S)NCCc1ccc(O)cc1`: the EC50 was > 100 µM (inactive).

On to `CSc1cccc(NC(=O)CCNS(=O)(=O)c2ccc3[nH]c(=O)oc3c2)c1`, for which the EC50 was > 100 µM (inactive).

With `O=C(NNC(=O)c1cc(O)c(O)c(O)c1)NC1CCCCC1`, the EC50 was > 100 µM (inactive).

Take `Cc1ccc(NC(=O)CCNS(=O)(=O)c2ccc3[nH]c(=O)oc3c2)cc1F`: the EC50 is > 100 µM (inactive). Take `O=S(=O)(Nc1ncccn1)c1ccc(NC(=S)NCCC(c2ccccc2)c2ccccc2)cc1`: the EC50 was > 100 µM (inactive). Next, `O=C(CN1C(=O)/C(=C/c2ccco2)SC1=S)N[C@@H]1CSC[C@@H]1O`: > 100 µM (inactive). In the case of `COc1cccc(/C=N/NC(=O)c2cc(O)c(O)c(O)c2)c1`, the EC50 was > 100 µM (inactive). As for `CC(C(=O)NCCc1ccc(O)c(O)c1)N1C(=O)/C(=C\c2ccco2)SC1=S` (centres undefined), the EC50 is > 100 µM (inactive). Turning to `N#Cc1c(SCC(=O)Nc2nccs2)sc2c(O)cc(=O)[nH]c12`, the EC50 is > 100 µM (inactive). Consider `Cc1ccc(Cl)cc1NC(=O)CSc1sc2c(O)cc(=O)[nH]c2c1C#N`, for which the EC50 was > 100 µM (inactive).

`Cc1csc(NC(=O)CSc2sc3c(O)cc(=O)[nH]c3c2C#N)n1`: the EC50 is > 100 µM (inactive).

Consider `S=C(NCCC(c1ccccc1)c1ccccc1)Nc1ccc(Cl)cc1Cl`, for which the EC50 was 45.1 µM. As to `COc1ccccc1CNC(=O)CCNS(=O)(=O)c1ccc2[nH]c(=O)oc2c1`, the EC50 was > 100 µM (inactive). `CC(C(=O)Nc1ccc(C(=O)O)c(O)c1)N1C(=O)/C(=C\c2ccco2)SC1=S` (centres undefined): the EC50 is > 100 µM (inactive). The value for `O=C(CCNS(=O)(=O)c1ccc2[nH]c(=O)oc2c1)Nc1cccc(-c2ccno2)c1` was > 100 µM (inactive); that for `O=C(CN1C(=O)/C(=C\c2ccco2)SC1=S)Nc1ccc(O)cc1C(=O)O` was > 100 µM (inactive). The value for `O=C(CN1C(=O)/C(=C/c2ccco2)SC1=S)Nc1ccc(C(=O)O)cc1` was > 100 µM (inactive); that for `N#Cc1cccc(NC(=O)CCNS(=O)(=O)c2ccc3[nH]c(=O)oc3c2)c1` was > 100 µM (inactive); that for `COc1ccccc1NC(=O)CCNS(=O)(=O)c1ccc2[nH]c(=O)oc2c1` was > 100 µM (inactive). `O=C(CN1C(=O)/C(=C\c2ccco2)SC1=S)Nc1ccc(C(=O)O)cc1`: the EC50 was > 100 µM (inactive). With `O=C(N/N=C/c1ccc(F)cc1)c1cc(O)c(O)c(O)c1`, the EC50 was > 100 µM (inactive). Consider `O=[N+]([O-])c1ccc(NC(=S)NCCC(c2ccccc2)c2ccccc2)cc1`, for which the EC50 was > 100 µM (inactive). With `COc1cc(C(=O)NNC(=S)NC(=O)c2ccc(Cl)cc2)cc(OC)c1OC`, the EC50 is 19.1 µM. As for `Cc1cc(=O)oc2cc(NC(=S)NCCC(c3ccccc3)c3ccccc3)ccc12`, the EC50 is > 100 µM (inactive). As for `N#Cc1c(SCC(=O)Nc2ccc(Cl)cc2Cl)sc2c(O)cc(=O)[nH]c12`, the EC50 is > 100 µM (inactive). Regarding `O=C(CCN1C(=O)/C(=C/c2ccco2)SC1=S)Nc1ccc(O)cc1C(=O)O`, the EC50 is > 100 µM (inactive). Take `O=C(N/N=C/c1ccco1)c1cc(O)c(O)c(O)c1`: the EC50 was > 100 µM (inactive). Next, `O=C(CN1C(=O)/C(=C/c2ccco2)SC1=S)Nc1cccc(C(=O)O)c1`: > 100 µM (inactive); `COc1cccc(NC(=O)CN(C)S(=O)(=O)c2ccc3[nH]c(=O)oc3c2)c1`: > 100 µM (inactive). `O=C(CCNS(=O)(=O)c1ccc2[nH]c(=O)oc2c1)Nc1ccccc1`: the EC50 was > 100 µM (inactive).

In the case of `CN1CCC(=NNC(=O)c2cc(O)c(O)c(O)c2)CC1`, the EC50 is > 100 µM (inactive) and 64 µM. The value for `N#Cc1c(SCC(=O)Nc2nc3ccccc3s2)sc2c(O)cc(=O)[nH]c12` was > 100 µM (inactive); that for `O=C(CCN1C(=O)/C(=C\c2ccco2)SC1=S)Nc1ccc(C(=O)O)c(O)c1` was > 100 µM (inactive). Consider `CCN(C(=O)C(C)N1C(=O)/C(=C/c2ccco2)SC1=S)C1CCS(=O)(=O)C1` (centres undefined), for which the EC50 is 82.9 µM. Regarding `CCOC(=O)N1CCN(S(=O)(=O)c2ccc3[nH]c(=O)oc3c2)CC1`, the EC50 is > 100 µM (inactive).

For `O=C(CN1C(=O)/C(=C/c2ccco2)SC1=S)Nc1ccc(C(=O)O)c(O)c1`, the EC50 was > 100 µM (inactive). With `CC(C(=O)Nc1ccc(C(=O)O)cc1)N1C(=O)/C(=C\c2ccco2)SC1=S` (centres undefined), the EC50 is > 100 µM (inactive). With `O=C(C1CCN(S(=O)(=O)c2ccc3[nH]c(=O)oc3c2)CC1)N1CC=C(c2ccccc2)CC1`, the EC50 was > 100 µM (inactive).

In the case of `COc1ccc(NC(=S)NCCC(c2ccccc2)c2ccccc2)cc1`, the EC50 is 52.3 µM. With `CC(C)C(C(=O)NC1CCS(=O)(=O)C1)N1C(=O)/C(=C\c2ccco2)SC1=S` (centres undefined), the EC50 was > 100 µM (inactive). As to `O=C(c1ccco1)N1CCN(S(=O)(=O)c2ccc3[nH]c(=O)oc3c2)CC1`, the EC50 is > 100 µM (inactive). Take `CC(C)NC(=O)CSc1sc2c(O)cc(=O)[nH]c2c1C#N`: the EC50 is > 100 µM (inactive). Turning to `Cc1ccc(NC(=O)CCNS(=O)(=O)c2ccc3[nH]c(=O)oc3c2)c(C)c1`, the EC50 is > 100 µM (inactive).

For the compound `O=C(CCCN1C(=O)/C(=C\c2ccco2)SC1=S)Nc1ccc(O)cc1C(=O)O`, the EC50 is > 100 µM (inactive).

(Values after PubChem BioAssay AID493145 (Sanford-Burnham Center for Chemical Genomics, 2011).)
